Results as given in article PMC12040169 (PLOS Biology, 2025).

assay: in vitro; details: human, hela cells, % viability

SMILES | viability at 28.5 h, 10 µM [%]
COc1ccc([N+](=O)[O-])cc1-c1ccc(-c2nc(-c3ccccc3)c(-c3ccccc3)[nH]2)o1 [CBK262497] | 77.3
Cn1c(CNc2ccc(C(=O)O)cc2)nc2ccccc21 [CBK262501] | 95.1
CCOC(=O)c1[nH]c(C)c(C(=O)N/N=C/c2ccc(-c3ccc(Cl)cc3)o2)c1C [CBK262503] | 95
O=C1c2ccccc2C(=O)N1c1ccc(S(=O)(=O)NCCCO)c2ccccc12 [CBK262509] | 105
N=c1n(CCN2CCCCC2)c2ccccc2n1CC(O)COc1ccc(Cl)cc1 (centres unmarked) [CBK262512C] | 89.7
CC(=O)Nc1nnc(SCCc2ccccc2)[nH]1 [CBK262514] | 95.6
NNC(=O)c1c(NC(=O)c2ccccc2)sc2c1CCC2 [CBK262516] | 104
CCN(CC)CCn1c(=N)n(CC(=O)OC)c2ccccc21 [CBK262517B] | 87.3
O=C(CN(c1cccc(Cl)c1)S(=O)(=O)c1ccccc1)NN=C1CCCCCC1 [CBK262519] | 89.9
CC1(C)CC(=O)C(=CNCC(N)=O)C(=O)C1 [CBK262520] | 87.2
O=C1CC(c2ccccc2)CC(=O)C1=CNCCN1CCOCC1 (centres unmarked) [CBK262522] | 94
Cc1ccccc1OCCSc1nc2ccccc2n1CCO [CBK262523] | 98.1
COC(=O)c1ccccc1NC(=O)c1cc2nc(-c3cccs3)cc(C(F)(F)F)n2n1 [CBK262524] | 88
C=CCOC(=O)C1=C(C)OC(N)=C(C(=O)OCc2ccccc2)C12C(=O)Nc1ccccc12 (centres unmarked) [CBK262527] | 90.9
Cc1nc(N/C(=N/C(=O)c2ccccc2)NC(=O)c2ccccc2)nc2ccccc12 [CBK262529] | 103
CN(C)c1ccc(/C=C(\C#N)c2nn(-c3ccccc3)c(N)c2C#N)cc1[N+](=O)[O-] [CBK262532] | 83.4
O=C(Nc1cc(Oc2cccnc2)cc([N+](=O)[O-])c1)c1nn2c(C(F)(F)F)cc(-c3cccs3)nc2c1Br [CBK262535] | 84.7
O=C(c1ccc(S(=O)(=O)N2CCCCC2)cc1)N1CCN(CCN2C(=O)c3cccc4cccc(c34)C2=O)CC1 [CBK262536] | 79.3
CCOC(=O)c1c(NC(=O)c2nn3c(C(F)(F)F)cc(-c4cccs4)nc3c2Cl)sc2c1CCCC2 [CBK262539] | 95.1
O=S(=O)(NCC(O)Cn1c2ccc(Cl)cc2c2cc(Cl)ccc21)c1ccccc1 (centres unmarked) [CBK262542] | 88.6
O=[N+]([O-])c1ccc(NCCCNS(=O)(=O)c2ccc(Cl)cc2)c(Cl)c1 [CBK262543] | 90.6

SMILES | viability at 28.5 h, 10 µM [%]
OC(Cn1c(Cc2ccccc2)nc2ccccc21)Cn1c2ccc(Cl)cc2c2cc(Cl)ccc21 (centres unmarked) [CBK262546] | 89.4
CCOC(=O)C1=c2s/c(=C\c3cccnc3)c(=O)n2C(N)=C(C#N)C1c1cccnc1 (centres unmarked) [CBK262549] | 107
O=C(O)CCn1c2ccc(Br)cc2c2cc(Br)ccc21 [CBK262551] | 83.9
CCOC(=O)c1c(NC(=O)c2cc3ccccc3o2)sc2c1CCCC2 [CBK262552] | 84
O=C(NCCCN1CCOCC1)c1nn2c(C(F)(F)F)cc(-c3cccs3)nc2c1Cl [CBK262553] | 82
O=C(Nc1cc(Oc2cccnc2)cc([N+](=O)[O-])c1)c1cc2nc(-c3ccccc3)cc(-c3ccccc3)n2n1 [CBK262554] | 87.3
O=C(O)CCSc1nc2ccccc2n1CCOc1ccccc1 [CBK262555] | 95.9
O=C(c1sc2ccccc2c1Cl)N1CCN(CCN2C(=O)c3cccc4cccc(c34)C2=O)CC1 [CBK262557] | 99
Cc1c(Br)c(C(F)(F)F)nn1CC(=O)Nc1ccc(Oc2cc([N+](=O)[O-])cc([N+](=O)[O-])c2)cc1 [CBK262558] | 97.5
CC1(C)Cc2c(ccc3ccccc23)C(NCC(=O)O)=N1 [CBK262559] | 97.6
Cc1ccc(OCCn2c(SCCC(=O)O)nc3ccccc32)cc1 [CBK262561] | 84.7
N#CC1=C(N)n2c(s/c(=C\c3ccncc3)c2=O)=C(C#N)C1c1ccncc1 (centres unmarked) [CBK262563] | 96
CCN=C(S)NNC(=O)CCn1c2ccccc2c2ccccc21 [CBK262564] | 93.8
Cc1ccccc1NC(=O)CC1c2ccccc2CC(C)(C)N1C (centres unmarked) [CBK262567] | 87.4
CC1(C)Cc2c(ccc3ccccc23)C(NC(Cc2c[nH]c3ccccc23)C(=O)O)=N1 (centres unmarked) [CBK262569] | 89.4
O=c1/c(=C/c2ccc(N3CCOCC3)cc2)sc2nc3cc(Br)cnc3n12 [CBK262574] | 86.9
CC(NC1=NC(C)(C)Cc2ccccc21)C(=O)O (centres unmarked) [CBK262575] | 89
CC1=C(C(=O)OCc2ccccc2)C2(C(=O)Nc3ccccc32)C(C(=O)OCc2ccccc2)=C(N)O1 (centres unmarked) [CBK262576] | 89.6
O=C(O)CCCN1C(=O)/C(=C/c2c[nH]c3ccccc23)SC1=S [CBK262580] | 119
O=C(O)c1nn2c(C(F)(F)F)cc(-c3cccs3)nc2c1Cl [CBK262581] | 95.4
COc1cc(/C=N/Nc2nc(Nc3ccccc3)nc(Nc3ccccc3)n2)ccc1O [CBK262584] | 84.9

SMILES | viability at 28.5 h, 10 µM [%]
CCCN1CCc2c(sc3nc(SCC(=O)c4ccccc4)n(-c4ccccc4)c(=O)c23)C1 [CBK262587] | 109
CCCOc1ccc(Cc2nnn[nH]2)cc1 [CBK262590] | 83.9
COc1ccc(C(=O)NNC(=O)c2cccc(O)c2)cc1 [CBK262594] | 118
CCCN1CCC(=NNC(=O)c2c[nH]c3ccccc23)CC1 [CBK262597] | 95.3
COC(=O)c1cn(C(=O)COc2ccc(Cl)cc2)c2ccccc12 [CBK262598] | 87
NC(=O)c1ccccc1NC(=O)COc1ccccc1 [CBK262599] | 85.1
O=C(Nc1ccc(O)cc1)c1ccc(N2C(=O)c3cccc([N+](=O)[O-])c3C2=O)cc1 [CBK262600] | 89.8
O=C(O)CCC(=O)Nc1ccc(Br)cc1C(=O)c1ccc(Cl)cc1 [CBK262601] | 86.7
O=C(NCCCN1CCOCC1)c1ccccc1Br [CBK262602C] | 106
COC(=O)c1c(NC(=O)C(Sc2ccccc2)c2ccccc2)sc2c1CCC(C(C)(C)C)C2 (centres unmarked) [CBK262603] | 105
COC(=O)CNC(c1cc(Br)ccc1N)c1ccccc1Cl (centres unmarked) [CBK262605] | 89
COc1cc(C(=O)NC(C)C(=O)NN)cc(OC)c1OC (centres unmarked) [CBK262609] | 106
COc1ccccc1OCC(=O)NNC(=O)c1cnccn1 [CBK262617] | 109
C/C(CC(=O)Nc1ccc(C)cc1)=N\NC(=O)c1cccc(O)c1 [CBK262618] | 104
COc1ccc(OCC(=O)NNC(=O)c2cnccn2)cc1 [CBK262619] | 98.1
CC(=O)C1=C(C)NC(SCC(=O)c2ccc(C)cc2)=C(C#N)C1c1ccco1 (centres unmarked) [CBK262623] | 109
CC(=O)C1=C(C)NC(SCC(=O)c2ccc(F)cc2)=C(C#N)C1c1sccc1C (centres unmarked) [CBK262624] | 95.6
CC(C)N1CCC(=NNC(=O)c2cc(O)c(O)c(O)c2)CC1 [CBK262626] | 117
Cc1cc(NS(=O)(=O)c2ccc(NC(=O)c3cc(-c4ccc(C)o4)nc4ccccc34)cc2)nc(C)n1 [CBK262628] | 93.9
CCC1CCc2c(sc(NC(=O)c3cc(-c4ccc(C)cc4C)nc4ccccc34)c2C(=O)OC)C1 (centres unmarked) [CBK262629] | 89.2
COc1cccc(-c2cc(C(=O)NCCCN3CCOCC3)c3ccccc3n2)c1 [CBK262630] | 91.7

SMILES | viability at 28.5 h, 10 µM [%]
NC(=O)c1c(NC(=O)/C=C/c2c(F)cccc2Cl)sc2c1CCCCCC2 [CBK262631] | 98.2
O=C(c1cc(-c2cccc(Br)c2)nc2ccccc12)N1CCN(C/C=C/c2ccccc2)CC1 [CBK262633] | 100
Cc1c(-c2ccc(Cl)cc2Cl)nc2ccccc2c1C(=O)NCCCc1ccccc1 [CBK262635] | 89.4
COC(=O)c1c(NC(=O)c2ccncc2)sc2c1CCC2 [CBK262637] | 88.1
O=C(c1ccc2c(c1)OCO2)N1CCN(C/C=C/c2ccccc2)CC1 [CBK262639] | 105
COc1cccc(-c2cc(C(=O)Nc3nnn[nH]3)c3ccccc3n2)c1 [CBK262640] | 98.6
O=C(O)CC(NS(=O)(=O)c1cccc([N+](=O)[O-])c1)c1ccccc1 (centres unmarked) [CBK262641] | 96.4
Cc1cc(C)cc(NC(=O)C2C3C=CC(O3)C2C(=O)O)c1 (centres unmarked) [CBK262642] | 95.3
COC(=O)c1c(NC(=O)c2c(C)c(-c3ccc(Cl)cc3Cl)nc3ccccc23)sc2c1CCC(C)C2 (centres unmarked) [CBK262644] | 82.9
CCOC(=O)c1c(NC(=O)CCC(=O)O)sc2c1CCCCC2 [CBK262648] | 100
CCC1CCc2c(sc(NC(=O)c3cnccn3)c2C(N)=O)C1 (centres unmarked) [CBK262649] | 105
COc1ccc(/C=C/C(=O)Nc2cc(S(N)(=O)=O)ccc2C)cc1 [CBK262651] | 102
CCOC(=O)c1c(NC(=O)c2cc(-c3ccc(Cl)s3)nc3ccccc23)sc(C)c1CC [CBK262657] | 107
O=c1c2c(nc(SCCc3ccccc3)n1CCc1ccccc1)-c1ccccc1CC21CCCCC1 [CBK262661] | 86.8
CC12CN3CC(C)(CN(C1)C3c1ccc(O)cc1)C2O (centres unmarked) [CBK262663] | 107
Cc1cc(NN(Cc2ccccc2)Cc2ccccc2)n2c(nc3ccccc32)c1C#N [CBK262666] | 96.9
O=C1c2ccc(OCCOc3ccc4c(c3)C(=O)N(c3ccc(O)cc3)C4=O)cc2C(=O)N1c1ccc(O)cc1 [CBK262668] | 91.3
CC1=NN(c2ccc([N+](=O)[O-])cc2)C(=O)/C1=C/NCc1ccc(S(N)(=O)=O)cc1 [CBK262670] | 111
CC(NCCCN(C)C)=C1C(=O)c2ccccc2C1=O [CBK262674] | 81.6
CC(Nc1cccc2ccccc12)C(=O)N/N=C/c1ccc([N+](=O)[O-])cc1 (centres unmarked) [CBK262676] | 84.2
